Where “and” joins values, the source holds several entries; their conditions need not be identical. Equal entries are not always repeated.
Tests used:
TNBS-induced colitis = TNBS-induced colitis model of inflammatory bowel disease; assay type: in vivo, rat (Sprague Dawley); conditions: for conditions of the large intestine observed with the naked eye / changes in weights of the rat: TNBS-induced rats; for weight of the large intestine: vs TNBS-treated group
Excerpt: To see alleviating effects of the compounds of the present invention on colitis, an animal model induced by TNBS and having colitis was used for the experiments. The animal used herein was a 7 to 8 week Sprague Dawley species purchased from Samtaco Bio Korea. After the purchase, the animal was stabilized with typical solid feed for 2 days before being used for the experiments. The animal was freely supplied with feed and water during the experiments, and stayed in conditions maintaining a cage temperature of about 25±1° C. and relative humidity of about 50±10%. The cage was equipped with an automatic lightening system to adjust 12-hour light-dark cycle.
In regard to the experimental groups, 5 groups (i.e., a control group, a group administered with TNBS only, […], […], […]) were used according to the randomized block design, wherein each group consists of 6 rats having an average weight of about 180±10 g. The rats that had been fasting for 24 hours were anesthetized with diethylether (Et2O), and then, a 1 mL syringe connected with a polyethylene catheter was used to slowly inject 0.8 mL of 3% TNBS into colonic enema through the anus, wherein TNBS was diluted with 50% (v/v) ethanol. To prevent leakage of 3% TNBS from the anus, the rats turned upside down and let stand for 60 minutes.
In regard to the control group, only a vehicle (50% (v/v) ethanol) was injected into the rats of the control group in the same manner as in preparation of other experimental groups. To examine the effects of the drug, after being fasting for 24 hours, the rats were administered with drugs, i.e., 0.1 mg/kg or 1.0 mg/kg of Compounds 8a and 8j, once a day at a certain time from the second day to the fifth day of the TNBS treatment. As a comparative experimental material, 5-ASA, which is an active metabolite of sulfasalazine that is the most well-known as a therapeutic agent for IBDs, was used as a positive control group.
All the rats were scarified on the seventh day of the TNBS administration. […] After the large intestine of the rat was harvested, a 5 to 6 cm-long tissue from was cut from the anus to a size of 1 cm, and then, subjected to measure an intestine weight and activation of myeloperoxidase (MPO) in the tissue, and to perform a biopsy. In addition, changes in weight of all the animals used in the experiments were observed by using a digital mass meter, beginning from the fasting step, the TNBS administration, and the drug administration. In consideration of the management and use of laboratory animals, the animal experiments were followed according to institutional guidelines from Laboratory Animal Resources, Yeungnam University.
To measure the activation of MPO, an MPO assay was used. The colorectal tissue was washed with cold PBS, and a weight thereof was measured. Then, 200 μL of lysis buffer (pH7.4, 200 mM NaCl, 5 mM EDTA, 10 mM Tris, 10% glycerol) was added for each 10 mg of the weight of the tissue, and then, the tissue homogenizer (Bio homogenizer M133, BIOSPEC PRODUCTS Inc. USA) was used for 30 seconds in terms of homogenization. The homogenized sample was subjected to centrifugation (1500×g) twice, each for 15 minutes. The supernatant obtained therefrom was used to measure the activation of MPO by using the MPO ELISA kit (HK210, Hycult Biotechnology, Netherlands). 100 μL of the supernatant was added to the 96-well plates, each of which well was coated with an anti-mouse MPO antibody, to allow a reaction at room temperature for 1 hour, followed by being washed with PBS three times. Here, 100 μL of a reconstituted tracer was added thereto to allow a reaction at room temperature for 1 hour, followed by being washed three times repeatedly. Then, 100 μL of a reptavidin-peroxidase conjugate was added thereto to allow a reaction at room temperature for 1 hours, followed being washed. Then, 100 μL of a TMB substrate solution was added thereto to allow a reaction for 30 minutes. […]

HT-29 cells / U937 cells = experiment: TNF-α-induced adhesion of HT-29 intestinal epithelial cells and U937 mononuclear cells; assay type: cell-based, human; conditions: Homo sapiens, TNF-α 10 ng/ml, read-out: Inhibitory rates (%); for inhibition at 1 µM: pre-treated 1 hour
Description: HT-29 cells were cultured in a 24-well plate at a concentration of […] cells/cm^2, and meanwhile, amidopyridinol compounds 8a to 8z were pre-treated for 1 hour at each concentration in a serum-free medium supplemented only with 1% PS. Next, 10 ng/ml of TNF-α was treated therewith to allow a reaction at a temperature of 37° C. for 3 hours. After the completion of the reaction, the medium of the HT-29 cells was removed, and then, the HT-29 cells were washed with PBS once. Afterwards, U937 cells, which were treated and reacted with 10 μg/mL of BCECF-AM at a temperature of 37° C. for 30 minutes, were allowed to react with the HT-29 cells at temperature of 37° C. for 1 hour. Then, to remove U937 cells that were not adhered to the HT-29 cells, the reacted cells were washed with PBS twice. In terms of cell dissolution, 0.1% Triton X-100 in 0.1M Tris was allowed to react with the cells for 30 minutes at room temperature, and then, the cells were subjected to quantify by measuring fluorescence thereof using the Fluostar optima microplate reader (BMG Labtechnologies, Germany).

cathepsin S = experiment: RT-PCR of cathepsin S gene expression in MDA-MB-231 cells; assay type: cell-based; conditions: Homo sapiens, MDA-MB-231, 24 h, screening, 1 μM of each compound; MDA-MB-231, RT-PCR; read-out: Inhibition rate of expression of cathepsin S (%)
Description: Each compound of the present invention was treated with breast cancer cells (1×10^5 cell/cm^2), e.g., MDA-MB-231, and then, cultured at a temperature of 37° C. for 24 hours in a cell incubator. Afterwards, a trizole reagent was used to extract the entire mRNA therefrom. 24 hours later, the culture medium was removed therefrom, 1 mL of the triazole reagent was added to each well, and then, the cell elusion was transferred to a 1.5 mL tube. After 200 μl of chloroform was added to each sample, the samples were subjected to centrifugation at a temperature of 4° C., at 12,000 g, for 15 minutes. 500 μl of the supernatant obtained therefrom was transferred to a new tube. After 500 μl of isopropylalcohol was added to each sample, the samples were subjected to centrifugation at a temperature of 4° C., at 12,000 g, for 15 minutes. The supernatant obtained therefrom was removed from each sample, and then, the samples were washed with 75% ethanol to clean mRNA while the precipitants were dried. Then, mRNA extracted therefrom was dissolved in RNase-free water, followed by being heated at a temperature of 55° C. for 10 minutes.
After the RNA quantification, the GoScript™ reverse transcription system (Promega Corporation, Madison, Wis., USA) was used to synthesize cDNA. Here, PCR was performed by using TaKaRa Taq™ (Takara bio Inc., Shiga, Japan), wherein a primer set of cathepsin S consists of a forward primer having SEQ ID NO: 1 (forward sequence: 5′-GCAGTGGCACAGTTGCATAA-3′) and a reverse primer having SEQ ID NO: 2 (reverse sequence: 5′-AGCACCACAAGAACCCATGT-3′). After the PCR product was subjected to agarose gel electrophoresis, the PCR product was stained with ethidium bromide (0.5 μg/ml), thereby obtaining images thereof by using the gel imaging system (UVP, Cambridge, UK). Here, the PCR product was quantified based on glyceraldehyde 3-phosphate dehydrogenase (GAPDH). A GAPDH primer used herein consists of a forward primer having SEQ ID NO: 3 (forward sequence: 5′-GGTGAAGGTCGGAGTCAACG-3′) and a reverse primer having SEQ ID NO: 4 (reverse sequence: 5′-CAAAGTTGTCATGGATGACC-3′).
Furthermore, to screen other amidopyridinol derivatives that inhibit metastasis of breast cancer cells, inhibitory effects on expression of cathepsin S genes were reviewed by treating 1 μM of each compound, in the same manner as in Experimental Example 9.

A549 lung cancer cells = experiment: CAM inoculated with A549 lung cancer cells: angiogenesis and tumor growth; assay type: in vivo, chicken; conditions: for Inhibition rates of angiogenesis (%) / Inhibition rates of tumor growth (%): A549 on CAM, 5 days
Description: To confirm inhibitory effects on angiogenesis through in vivo experiments, the CAM analysis was carried out (refer to Nguyen M et al., Microvascular Res., 47, pp 31-40, 1994). A fertilized egg of a chicken was cultured in conditions maintaining a temperature of 37° C. and relative humidity of 55%. On the 9th day of the culturing, a first small hole was made on an air sac part using a hypodermic needle (Green Cross Medical Corp., Korea), and then, a second hole was made on a flat part of the fertilized egg to make a window thereon. Air was removed through the first hole, i.e., the air sac part, and accordingly, the CAM was separated from the shell of the fertilized egg. Then, a grinding wheel (Multipro 395JA, Dremel, Mexico) was used to cut the air sac part, thereby making a window thereon. Meanwhile, A549 lung cancer cells were mixed with matrigel at a ratio of 1:1, and then, the mixture was treated with Compounds 8a, 8b, and 8g, respectively, followed by being inoculated at a density of 1.5×10^6 cells/CAM.
After 5 days of the inoculation, the CAM part on which tumors were formed was isolated, and then, washed with PBS. The Stemi SV6 stereomicroscope (Carl Zeiss, Germany) and the Image-Pro Plus software (Media Cybernetics; Silver Spring, Md., USA) were used to capture images of the CAM part, so as to measure the number of the blood vessels and to analyze data obtained therefrom.

[1] = tested on: VEGF-induced angiogenesis in chicken chorioallantoic membrane (CAM); experiment: CAM analysis of VEGF-induced angiogenesis; assay type: in vivo; conditions: for inhibition in vivo at 0.01 nmol/CAM: Gallus gallus, 72 h, VEGF (20 ng/CAM) + Compound (0.01 nmol/CAM), number of blood vessels after 3 days, read-out: Inhibitory rates (%)
Description: To confirm inhibitory effects on angiogenesis through in vivo experiments, the chorioallantoic membrane (CAM) analysis was carried out (refer to Nguyen M et al., Microvascular Res., 47, pp 31-40, 1994). A fertilized egg of a chicken was cultured in conditions maintaining a temperature of 37° C. and relative humidity of 55%. On the 10th day of the culturing, a first small hole was made on an air sac part using a hypodermic needle (Green Cross Medical Corp., Korea), and then, a second hole was made on a flat part of the fertilized egg to make a window thereon. Air was removed through the first hole, i.e., the air sac part, and accordingly, the CAM was separated from the shell of the fertilized egg. Then, a grinding wheel (Multipro 395JA, Dremel, Mexico) was used to cut the air sac part, thereby making a window thereon. Next, the whatman filter disk #1 (Whatman Company, USA) was treated with 3 mg/mL of cortisone acetate, dried, and then, wet by VEGF at a concentration of 20 ng/CAM. The filter disk was placed on blood vessels through the window, and then, compounds prepared according to Examples above were each dissolved in DMSO, diluted with PBS, and then, treated for each concentration. After 3 days of treating the compounds, the CAM part on which the filter disk was placed was isolated, and then, washed with PBS. The Stemi SV6 stereomicroscope (Carl Zeiss, Germany) and the Image-Pro Plus software (Media Cybernetics; Silver Spring, Md., USA) were used to capture images of the CAM part, so as to measure the number of the blood vessels and to analyze data obtained therefrom.

## Nc1ccc(O)c(C(=O)O)c1 [Compound 5-ASA, 5-aminosalicylic acid, reference compound]
TNBS-induced colitis; 100 mg/kg
  activation of myeloperoxidase (MPO) in colorectal tissue: significantly decreased activation of MPO
  conditions of the large intestine observed with the naked eye: significantly inhibited
  weight of the large intestine: significantly decreased
TNBS-induced colitis; 300 mg/kg
  changes in weights of the rat: slowly recovered on the third day
HT-29 cells / U937 cells; 20 mM
  inhibition at 20000 µM: 46.8%

## Cc1nc(NC(=O)C2CCCC2)c(C)c(C)c1O [Compound 8g, N-(5-hydroxy-3,4,6-trimethylpyridine-2-yl)cyclopentane carboxamide]
Cathepsin S
  inhibition at 1 µM: ≥ 50%
HT-29 cells / U937 cells
  inhibition at 1 µM: 42.8%
A549 lung cancer cells; 0.001 pmol/CAM
  Inhibition rates of angiogenesis (%): 30.9 ± 8.5 %
  Inhibition rates of tumor growth (%): 13.2 ± 3.5%
A549 lung cancer cells; 0.01 pmol/CAM
  Inhibition rates of angiogenesis (%): 48.4 ± 4.1 %
  Inhibition rates of tumor growth (%): 24.0 ± 1.6 %
A549 lung cancer cells; 0.1 pmol/CAM
  Inhibition rates of angiogenesis (%): 54.4 ± 6.7 %
  Inhibition rates of tumor growth (%): 45.1 ± 3.1 %
A549 lung cancer cells; 1.0 pmol/CAM
  Inhibition rates of angiogenesis (%): 58.1 ± 6.8 %
  Inhibition rates of tumor growth (%): 62.7 ± 2.3 %
A549 lung cancer cells; at each density
  inhibitory effects on angiogenesis and tumor growth (in words): inhibited angiogenesis upon tumorigenesis, as well as tumor growth
[1]
  inhibition in vivo at 0.01 nmol/CAM: 81.8 ± 8.4%
[1]; VEGF-induced CAM angiogenesis
  ID50 against inhibition of angiogenesis: 0.9 pg/CAM and 3.6 fmol/CAM

## Cc1nc(NC(=O)CCc2ccccc2)c(C)c(C)c1O [Compound 8j, N-(5-hydroxy-3,4,6-trimethylpyridine-2-yl)-3-phenylpropanamide]
TNBS-induced colitis; 1.0 mg/kg once a day
  changes in weights of the rat: significant weight recovery and increased weight
TNBS-induced colitis; 1.0 mg/kg
  conditions of the large intestine observed with the naked eye: excellent inhibitory effects on swelling and congestion
  weight of the large intestine: significantly decreased
HT-29 cells / U937 cells
  inhibition at 1 µM: 72.5%
[1]
  inhibition in vivo at 0.01 nmol/CAM: 74.2 ± 3.9%
